Data from the NIST ThermoML archive (doi:10.1021/je401036f).

Assay: xn = mol fraction of the nth substance listed
Conditions: 101 kPa, Liquid; for viscosity: Concentric cylinders viscometry; for mass density: Vibrating tube method

CC(O)CN (stereo not given) [1-amino-2-propanol] + CCC(C)O
Conditions	mass density [kg/m3]	viscosity [mPa·s]
288.15 K, x1 = 0.1003	823.697	5.068
288.15 K, x1 = 0.2005	837.759	5.97
288.15 K, x1 = 0.3	852.257	7.261
288.15 K, x1 = 0.3999	867.392	9.219
288.15 K, x1 = 0.5	882.695	11.68
288.15 K, x1 = 0.6001	898.243	14.95
288.15 K, x1 = 0.7	914.159	19.39
288.15 K, x1 = 0.8	930.494	25.16
288.15 K, x1 = 0.8999	947.198	32.94
288.15 K, x1 = 1	964.544	43.7
293.15 K, x1 = 0.1003	819.706	4.16
293.15 K, x1 = 0.2005	833.763	4.888
293.15 K, x1 = 0.3	848.265	5.949
293.15 K, x1 = 0.3999	863.403	7.373
293.15 K, x1 = 0.5	878.701	9.189
293.15 K, x1 = 0.6001	894.252	11.6
293.15 K, x1 = 0.7	910.183	14.8
293.15 K, x1 = 0.8	926.524	18.77
293.15 K, x1 = 0.8999	943.272	24.3
293.15 K, x1 = 1	960.598	31.68
298.15 K, x1 = 0.1003	815.665	3.45
298.15 K, x1 = 0.2005	829.72	4.048
298.15 K, x1 = 0.3	844.235	4.884
298.15 K, x1 = 0.3999	859.38	5.96
298.15 K, x1 = 0.5	874.691	7.338
298.15 K, x1 = 0.6001	890.255	9.121
298.15 K, x1 = 0.7	906.21	11.45
298.15 K, x1 = 0.8	922.526	14.41
298.15 K, x1 = 0.8999	939.29	18.35
298.15 K, x1 = 1	956.618	23.54
303.15 K, x1 = 0.1003	811.527	2.889
303.15 K, x1 = 0.2005	825.623	3.378
303.15 K, x1 = 0.3	840.158	4.059
303.15 K, x1 = 0.3999	855.316	4.898
303.15 K, x1 = 0.5	870.629	5.963
303.15 K, x1 = 0.6001	886.197	7.316
303.15 K, x1 = 0.7	902.141	9.136
303.15 K, x1 = 0.8	918.502	11.31
303.15 K, x1 = 0.8999	935.275	14.16
303.15 K, x1 = 1	952.612	17.89
308.15 K, x1 = 0.1003	807.298	2.444
308.15 K, x1 = 0.2005	821.466	2.86
308.15 K, x1 = 0.3	836.03	3.407
308.15 K, x1 = 0.3999	851.209	4.08
308.15 K, x1 = 0.5	866.532	4.929
308.15 K, x1 = 0.6001	882.111	5.962
308.15 K, x1 = 0.7	898.074	7.358
308.15 K, x1 = 0.8	914.445	9.005
308.15 K, x1 = 0.8999	931.229	11.12
308.15 K, x1 = 1	948.577	13.88
313.15 K, x1 = 0.1003	803.008	2.083
313.15 K, x1 = 0.2005	817.246	2.436
313.15 K, x1 = 0.3	831.847	2.887
313.15 K, x1 = 0.3999	847.055	3.435
313.15 K, x1 = 0.5	862.397	4.114
313.15 K, x1 = 0.6001	877.993	4.924
313.15 K, x1 = 0.7	893.97	6.014
313.15 K, x1 = 0.8	910.355	7.28
313.15 K, x1 = 0.8999	927.181	8.894
313.15 K, x1 = 1	944.515	10.96
318.15 K, x1 = 0.1003	798.619	1.795
318.15 K, x1 = 0.2005	812.957	2.094
318.15 K, x1 = 0.3	827.606	2.466
318.15 K, x1 = 0.3999	842.848	2.917
318.15 K, x1 = 0.5	858.232	3.47
318.15 K, x1 = 0.6001	873.856	4.113
318.15 K, x1 = 0.7	889.829	4.982
318.15 K, x1 = 0.8	906.227	5.972
318.15 K, x1 = 0.8999	923.11	7.219
318.15 K, x1 = 1	940.423	8.798
323.15 K, x1 = 0.1003	794.161	1.556
323.15 K, x1 = 0.2005	808.592	1.814
323.15 K, x1 = 0.3	823.3	2.124
323.15 K, x1 = 0.3999	838.586	2.499
323.15 K, x1 = 0.5	853.992	2.954
323.15 K, x1 = 0.6001	869.642	3.477
323.15 K, x1 = 0.7	885.646	4.164
323.15 K, x1 = 0.8	902.064	4.955
323.15 K, x1 = 0.8999	918.943	5.938
323.15 K, x1 = 1	936.293	7.166
328.15 K, x1 = 0.1003	789.608	1.358
328.15 K, x1 = 0.2005	804.15	1.576
328.15 K, x1 = 0.3	818.925	1.845
328.15 K, x1 = 0.3999	834.264	2.154
328.15 K, x1 = 0.5	849.702	2.529
328.15 K, x1 = 0.6001	865.379	2.969
328.15 K, x1 = 0.7	881.417	3.521
328.15 K, x1 = 0.8	897.859	4.163
328.15 K, x1 = 0.8999	914.764	4.947
328.15 K, x1 = 1	932.13	5.915
333.15 K, x1 = 0.1003	784.956	1.211
333.15 K, x1 = 0.2005	799.616	1.398
333.15 K, x1 = 0.3	814.474	1.637
333.15 K, x1 = 0.3999	829.873	1.897
333.15 K, x1 = 0.5	845.357	2.212
333.15 K, x1 = 0.6001	861.071	2.59
333.15 K, x1 = 0.7	877.143	3.042
333.15 K, x1 = 0.8	893.609	3.571
333.15 K, x1 = 0.8999	910.537	4.21
333.15 K, x1 = 1	927.93	4.986
